Holding throughout (type): cell-based
Experiment [1] relates to Propionibacterium acnes Tetracycline Resistant Clinical Isolates. Put plainly: microbe, parasite or virus in culture. Conditions: Cutibacterium acnes. An excerpt:
(§1) This study, a Minimum Inhibitory Concentration (MIC), will be performed based upon the Macrodilution Broth Method outlined in CLSJ Document M07-A 10, Methods for Dilution Antimicrobial Susceptibility Tests for Bacteria that Gro111 Aerobically, Tenth Edition, and CLSI Document MI I-A8, Methods for Antimicrobial Susceptibility Testing of Anaerobic Bacteria, Eighth Edition.
(§2) The Test Material will be evaluated versus at total of 17 different microorganism strains: 7 strains of Methicillin resistant Staphylococcus aureus, 6 stains of Propionibacterium acnes, 2 strains of Erythromycin resistant Propionibacterium acnes, and 2 strains of Tetracycline resistant Propionibacterium acnes. Positive Control Material #1 will be evaluated versus 2 strains of Erythromycin resistant Propionibacterium acnes. Positive Control Material #2 will be evaluated versus 2 strains of Tetracycline resistant Propionibacterium acnes.
(§3) A suspension of each challenge strain will be prepared and exposed to each of 10 doubling dilutions of the test material or positive control materials prepared in the appropriate nutrient broth (reference Table I). Following incubation, the Minimum Inhibitory Concentration (MIC) of the test material and positive control materials will be determined visually and documented.
(§4) 2 to 6 days prior to testing, sterile tubes containing Reinforced Clostridial Medium (RCM) will be inoculated from lyophilized vials or cryogenic stock cultures containing these species. The broth cultures will be incubated anaerobically at 35±2° C. for 1 to 3 days, or until sufficient growth is observed.
(§5) The purity of each broth culture will be verified by preparing duplicate isolation streaks on Chocolate Agar with Enrichment (CAE), and incubating one plate aerobically and one anaerobically at 35±2° C.
(§6) Following incubation, initial suspensions containing approximately 10^8 CFU/mL will be prepared for each species by centrifuging the broth culture tubes, combining the resulting pellets, and resuspending them in additional broth.
(§7) Final Challenge Suspensions containing approximately 1×10^6 CFU/mL of each microorganism strain will be prepared by transferring aliquots of the 10^8 CFU/mL initial suspensions into separate containers containing a volume of the appropriate broth media sufficient to the needs of testing.
(§8) On each day of testing, the Test Material will be diluted (v/v) using the appropriate broth media to produce an intermediate solution containing […] of Cannabidiol.
(§9) A series of 1:2 (v/v) dilutions of intermediate Test Material solution will be prepared using the appropriate broth media, to produce active concentrations of 100 μg/mL, 50 μg/mL, 25 μg/mL, 12.5 μg/mL, 6.25 μg/mL, 3.125 μg/mL, 1.562 μg/mL, 0.781 μg/mL, 0.390 μg/mL, and 0.195 μg/mL. […]

The test system of experiment [2] is Propionibacterium acnes Erythromycin Resistant Clinical Isolates. Put plainly: MIC, Macrodilution Broth Method, Erythromycin resistant P. acnes clinical isolates. Conditions: for MIC: Cutibacterium acnes, read-out: Minimum Inhibitory Concentration (MIC); for Minimum Inhibitory Concentration (MIC): Erythromycin resistant P. acnes clinical isolate BSLI #281014Pa6.
Description: as §1, §2, §3, §4, §5, §6, §7, §8, §9

For experiment [3], the system named is Methicillin resistant Staphylococcus aureus. Put plainly: microbe, parasite or virus in culture.
Description: as §1, §2, §3
2 to 4 days prior to testing, inocula from lyophilized vials or cryogenic stock cultures containing each species will be suspended in 0.9% Sodium Chloride Irrigation, USP (SCI), inoculated onto the surface of Tryptic Soy Agar (TSA) contained in Petri plates, and incubated at 35±2° C. for 24 to 48 hours, or until sufficient growth is observed.
24 to 48 hours prior to testing, growth from the agar plates previously prepared will be suspended in SCI.
The purity of each suspension will be verified by preparing isolation streaks of each culture on TSA. Aliquots of each suspension will then be spread-plated onto the surface of additional plates of TSA and incubated at 35±2° C. until sufficient growth is observed. This will produce lawns of the bacteria on the surface of the agar plates, and growth from these will be used to prepare the challenge suspensions.
Immediately prior to testing, an initial suspension of each species will be prepared in SCI by suspending the microorganisms from the solid media to achieve initial suspension concentrations of approximately 10^8 CFU/mL. The suspensions may be centrifuged, if deemed necessary, to achieve the desired concentration.
as §7, §8
(§10) A series of 1:2 (v/v) dilutions of intermediate Test Material solution will be prepared using the appropriate broth media, to produce active concentrations of 100 μg/mL, 50 μg/mL, 25 μg/mL, 12.5 μg/mL, 6.25 μg/mL, 3.125 μg/mL, 1.562 μg/mL, 0.781 μg/mL, 0.390 μg/mL, and 0.195 μg/mL.
(§11) A 1.0 mL aliquot of the intermediate Test Material solution (100 μg/mL), and 1.0 mL aliquots of each of the 9 test material dilutions prepared will be transferred to separate sterile test tubes. For each challenge microorganism, three sets of test tubes will be prepared for the Test Material.
(§12) A 1.0 mL aliquot of a challenge suspension containing approximately 1×10^6 CFU/mL will be dispensed into each dilution tube in each series.
(§13) Following inoculation, final active Test Material concentrations of 50 μg/mL, 25 μg/mL, 12.5 μg/mL, 6.25 μg/mL, 3.125 ug/ml, 1.562 μg/mL, 0.781 μg/mL, 0.390 ug/ml, 0.195 μg/mL and 0.0976 μg/mL will be produced.
(§14) Each dilution tube will contain approximately 5×10^5 CFU/mL of the challenge microorganism.

The test system of a further experiment is Propionibacterium acnes. Nature of the experiment: Minimum Inhibitory Concentration (MIC), Macrodilution Broth Method, Propionibacterium acnes ATCC strains. The note with it: Cutibacterium acnes.
Description: as §1, §2, §3, §4, §5, §6, §7, §8, §10, §11, §12, §13, §14
Positive Control Tubes (Growth Controls) containing a 1.0 mL aliquot of the appropriate broth media, and a 1.0 mL aliquot of challenge suspension will be prepared using each microorganism strain.
Negative Control Tubes (Sterility Controls; no microbial inoculation) of each broth media will be prepared.
Following incubation, the tubes will be examined for growth of the challenge microorganism, as determined visually on the basis of turbidity.

The mark [4] stands for this setting: read-out: Minimum Inhibitory Concentration (MIC), Tetracycline resistant P. acnes clinical isolate BSLI #281014Pa2.
Where [5] appears, read: read-out: Minimum Inhibitory Concentration (MIC), Tetracycline resistant P. acnes clinical isolate BSLI #281014Pa4.

≈ marks a conversion by molar mass, not a printed value. Where a name gives a salt, the structure may show the parent alone. Read-outs that look alike come from different tables or passages of the source.

As to `C=C(C)[C@@H]1CCC(C)=C[C@H]1c1c(O)cc(CCCCC)cc1O` [Cannabidiol], the MIC in experiment [1] (setting [4]) stood at 3.12 µg/mL (≈ 9.94 µM); in experiment [1] (setting [5]), 6.25 µg/mL (≈ 19.9 µM); in experiment [2] it was 6.25 µg/mL (≈ 19.9 µM); in experiment [3] (ATCC33592, read-out: Minimum Inhibitory Concentration (MIC)), 1.56 µg/mL (≈ 4.97 µM); in experiment [3] (ATCCBAA41, read-out: Minimum Inhibitory Concentration (MIC)), 1.56 µg/mL (≈ 4.97 µM); in experiment [3] (ATCCBAA42, read-out: Minimum Inhibitory Concentration (MIC)), 1.56 µg/mL (≈ 4.97 µM). Moreover, the MIC in experiment [3] (ATCCBAA44, read-out: Minimum Inhibitory Concentration (MIC)) is 1.56 µg/mL (≈ 4.97 µM); in experiment [3] (ATCCBAA1683, read-out: Minimum Inhibitory Concentration (MIC)) it was 1.56 µg/mL (≈ 4.97 µM); in experiment [3] (ATCCBAA2094, read-out: Minimum Inhibitory Concentration (MIC)), 1.56 µg/mL (≈ 4.97 µM); in experiment [3] (ATCCBAA2313, read-out: Minimum Inhibitory Concentration (MIC)) it was 1.56 µg/mL (≈ 4.97 µM); in experiment [3] (read-out: MIC against Staphylococcus aureus (summary over all strains)), approximately 1.56 µg/mL (≈ 4.97 µM); in the experiment with Propionibacterium acnes (ATCC6919, Propionibacterium acnes ATCC #6919, anaerobic, RCM broth, read-out: Minimum Inhibitory Concentration (MIC)), 3.12 µg/mL (≈ 9.94 µM). In addition, the MIC in the experiment on Propionibacterium acnes (ATCC6922, Propionibacterium acnes ATCC #6922, anaerobic, RCM broth, read-out: Minimum Inhibitory Concentration (MIC)) was 6.25 µg/mL (≈ 19.9 µM); in the experiment with Propionibacterium acnes (ATCC6923, Propionibacterium acnes ATCC #6923, anaerobic, RCM broth, read-out: Minimum Inhibitory Concentration (MIC)), 6.25 µg/mL (≈ 19.9 µM); in the experiment on Propionibacterium acnes (ATCC11827, Propionibacterium acnes ATCC #11827, anaerobic, RCM broth, read-out: Minimum Inhibitory Concentration (MIC)), 3.12 µg/mL (≈ 9.94 µM); with Propionibacterium acnes (ATCC11828, Propionibacterium acnes ATCC #11828, anaerobic, RCM broth, read-out: Minimum Inhibitory Concentration (MIC)), 6.25 µg/mL (≈ 19.9 µM); in the experiment with Propionibacterium acnes (ATCC51277, Propionibacterium acnes ATCC #51277, anaerobic, RCM broth, read-out: Minimum Inhibitory Concentration (MIC)) it was 6.25 µg/mL (≈ 19.9 µM); with Propionibacterium acnes (all P. acnes strains tested, including strains resistant to other antibiotics, read-out: MIC against Propionibacterium acnes (summary over all strains)), 3.12 to 6.25 µg/mL (≈ 9.94 to 19.9 µM). Besides, the “Minimum Inhibitory Concentration (MIC)” value in experiment [2] came out at 6.25 µg/mL.
Take `CN(C)[C@@H]1C(O)=C(C(N)=O)C(=O)[C@@]2(O)C(O)=C3C(=O)c4c(O)cccc4[C@@](C)(O)[C@H]3C[C@@H]12` [Tetracycline HCl, reference compound]: the MIC in experiment [1] (setting [4]) worked out at 64 µg/mL; in experiment [1] (setting [5]) it was 128 µg/mL.
With `CC[C@H]1OC(=O)[C@H](C)[C@@H](O[C@H]2C[C@@](C)(OC)[C@@H](O)[C@H](C)O2)[C@H](C)[C@@H](O[C@@H]2O[C@H](C)C[C@H](N(C)C)[C@H]2O)[C@](C)(O)C[C@@H](C)C(=O)[C@H](C)[C@@H](O)[C@]1(C)O` [Erythromycin, reference compound], in experiment [2], the MIC came out at 2050 µg/mL (≈ 2790 µM) and the “Minimum Inhibitory Concentration (MIC)” value is 2048 µg/mL.

Values taken from patent US20200289430A1, “Antibacterial Treatments Using Cannabinoids” (priority 2017, published 2020).
